According to patent US20180087079A1, “METHODS OF USING CELL-CYCLE INHIBITORS TO MODULATE ONE OR MORE PROPERTIES OF A CELL CULTURE” (AMGEN INC., priority 2013, published 2018):
Each block holds one molecule with its values, some of them ahead of it.

Tests used:
[1] = test system: transfected CHO cells expressing recombinant human monoclonal antibody (cell line 1); test: 24-deep well culture, cell line 1: VCD, viability, titer, qP; format: cell-based, Chinese hamster; conditions: for Titer / VCD / Viability / qP: Cell Line 1; for effect on viability / growth arrest: summary of Table 2
Experimental: Transfected CHO cells expressing a recombinant human monoclonal antibody (mAb) are cultured in 24-deep well plates with seeding density at 1×10^7/mL for five days. At certain time periods, samples of the cultures are taken and evaluated for viable cell density (VCD; expressed in 10^6 cells/mL); percent viability (as determined by trypan blue exclusion); titer of recombinant protein (expressed in grams of protein per liter of culture, or g/L, as determined by Protein A affinity HPLC); qP, or specific productivity (expressed in picograms of recombinant protein per cell per day, or pg/c/d), the presence or absence of high molecular weight substances (usually an indicator of protein aggregation; expressed as % of the total protein); and the relative percentage of Mannose 5, a major intermediate glyco-form that attaches to N297 of the mAb. N-linked glycosylation has an impact on the tertiary structure of the antibody and may affect Fc mediated antibody effector functions. The majority of the human Fc glycans are complex biantennary structures with galactose as the prevalent terminal sugar. Immature glyco-forms, such as high-mannose glycol-forms (Man5-9), are of concern due to potential higher plasma clearance rate (as compared to the clearance rate of complex glycan linked mAbs).
Compounds are further evaluated essentially as described in Example 2 herein. Briefly, transfected CHO cells expressing recombinant human monoclonal antibody (mAb; two different cell lines expressing two different mAb, referred to as cell line 1 and cell line 2) are cultured in 24-deep well plates in the presence or absence of the compounds. At specified time points, samples of the cultures are taken and evaluated for viable cell density (VCD; expressed in 10^6 cells/mL); percent viability (as determined by any method known in the art); titer of recombinant protein (expressed in grams of protein per liter of culture, or g/L, as determined by Protein A affinity HPLC); qP, or specific productivity (expressed in picograms of recombinant protein per cell per day, or pg/c/d). Additional parameters measure include the presence or absence of high molecular weight substances (usually an indicator of protein aggregation; expressed as % of the total protein); and the relative percentage of Mannose 5. For comparison purposes, Compounds A and B, which had been previously tested, were tested again.

[2] = molecular target: T1, CDK4/Cyclin D1 (Homo sapiens, UniProt P11802); test: CDK4 filtration kinase assay; format: biochemical; conditions: CDK4/Cyclin D1, Rb fragment substrate, [33P]-ATP
T1 construct: purchased Cell Signaling Technology
T1 sequence (P11802 whole entry, species assumed, the tested form may be a part): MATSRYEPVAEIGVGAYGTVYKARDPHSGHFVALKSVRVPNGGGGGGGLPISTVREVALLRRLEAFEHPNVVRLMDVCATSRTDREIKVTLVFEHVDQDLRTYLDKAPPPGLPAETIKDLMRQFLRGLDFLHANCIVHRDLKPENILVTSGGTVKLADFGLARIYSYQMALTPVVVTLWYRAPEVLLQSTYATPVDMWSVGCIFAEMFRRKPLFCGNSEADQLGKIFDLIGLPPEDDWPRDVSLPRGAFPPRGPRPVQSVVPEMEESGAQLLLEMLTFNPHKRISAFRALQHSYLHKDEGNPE
T1 sequence (P24385 whole entry partner, species assumed, the tested form may be a part): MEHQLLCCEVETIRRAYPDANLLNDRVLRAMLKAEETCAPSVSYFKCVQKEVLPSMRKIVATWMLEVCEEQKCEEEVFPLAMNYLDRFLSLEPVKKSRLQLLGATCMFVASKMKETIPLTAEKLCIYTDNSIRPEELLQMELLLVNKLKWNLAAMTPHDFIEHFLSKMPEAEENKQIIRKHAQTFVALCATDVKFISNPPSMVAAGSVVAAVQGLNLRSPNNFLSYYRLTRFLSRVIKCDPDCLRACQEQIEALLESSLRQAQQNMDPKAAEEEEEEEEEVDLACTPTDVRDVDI
Experimental: The CDK4 inhibitory activity of the cell cycle inhibitors was determined with a filtration kinase assay. The compounds, kinase and substrate diluted in the kinase buffer (20 mM Tris, pH7.4, 50 mM NaCl, 1 mM DTT, 0.1% BSA) were sequentially added to a 96-well Multiscreen HTS filtration plate (Millipore). The final 100 μL reaction mixture in each well contained 0.3 μg of CDK4/Cyclin D1 (Cell Signaling Technology), 1 μg of Rb fragment (aa773-928, Millipore) for the CDK4 assay and 1 μCi of [^33P]-ATP. The mixture was incubated at room temperature for 1 hour. The proteins in the reaction were then precipitated and washed with cold TCA solution using an aspiration/filtration vacuum system. The plates were dried at room temperature, and the retained radioactivity was measured by scintillation counting. IC50 values of the compounds in the above assays were determined by non-linear regression analysis using Prism (GraphPad Software).

[3] = test system: Colo205; test: [14C]-thymidine incorporation cell proliferation inhibition assay; format: cell-based; conditions: Homo sapiens, COLO 205, 72 hour incubation
Experimental: The cell proliferation inhibition potency of the cell cycle inhibitors was determined by using a [^14C]-thymidine incorporation assay. Exponentially growing cells (Colo205) were seeded in a 96-well Cytostar T plate (GE Healthcare Biosciences) at a density of 5×10^3 cells/well and incubated overnight. Serially diluted compounds and 0.1 μCi of [^14C]-thymidine (GE Healthcare Biosciences) were added to each well on the following day. After 72 hour incubation, isotope incorporation was determined with a β plate counter (Wallac). IC50 values of the compounds in the above assays were determined by non-linear regression analysis using Prism (GraphPad Software).

IC50 [2]: 0.00445 µM | IC50 [3]: 0.0384 µM
Structure (SMILES): CC1CCC(n2c3cnccc3c3cnc(Nc4ccc(N5CCC6(CC5)CCS(=O)(=O)C6)nn4)nc32)CC1 (stereo not drawn) [Compound E, 8-(6-((9-(4-methylcyclohexyl)-9H-pyrido[4′,3′:4,5]pyrrolo[2,3-d]pyrimidin-2-yl)amino)pyridazin-3-yl)-2-thia-8-azaspiro[4.5]decane 2,2-dioxide]
Titer ([1]; 5 microM, D 1): 0.47 g/L | VCD ([1]; 5 microM, D 1): 10.31 e6/mL | Viability ([1]; 5 microM, D 1): 95.94% | qP ([1]; 5 microM, D 1): 45.61 pg/c/d | Titer ([1]; 5 microM, D 2): 0.67 g/L | VCD ([1]; 5 microM, D 2): 9.37 e6/mL | Viability ([1]; 5 microM, D 2): 85.43% | qP ([1]; 5 microM, D 2): 71.53 pg/c/d | Titer ([1]; 5 microM, D 3): 0.85 g/L | VCD ([1]; 5 microM, D 3): 10.05 e6/mL | Viability ([1]; 5 microM, D 3): 79.09% | qP ([1]; 5 microM, D 3): 84.92 pg/c/d | Titer ([1]; 5 microM, D 4): 0.98 g/L | VCD ([1]; 5 microM, D 4): 10.39 e6/mL | Viability ([1]; 5 microM, D 4): 72.71% | qP ([1]; 5 microM, D 4): 94.68 pg/c/d | Titer ([1]; 10 microM, D 1): 0.48 g/L | VCD ([1]; 10 microM, D 1): 9.99 e6/mL | Viability ([1]; 10 microM, D 1): 94.71% | qP ([1]; 10 microM, D 1): 47.72 pg/c/d | Titer ([1]; 10 microM, D 2): 0.66 g/L | VCD ([1]; 10 microM, D 2): 9.29 e6/mL | Viability ([1]; 10 microM, D 2): 83.23% | qP ([1]; 10 microM, D 2): 71.04 pg/c/d | Titer ([1]; 10 microM, D 3): 0.83 g/L | VCD ([1]; 10 microM, D 3): 9.55 e6/mL | Viability ([1]; 10 microM, D 3): 76.37% | qP ([1]; 10 microM, D 3): 87.30 pg/c/d | Titer ([1]; 10 microM, D 4): 0.96 g/L | VCD ([1]; 10 microM, D 4): 10.29 e6/mL | Viability ([1]; 10 microM, D 4): 72.16% | qP ([1]; 10 microM, D 4): 92.97 pg/c/d | effect on viability [1]: greater (but still modest) decreases in viability | growth arrest [1]: more sustained growth arrest

IC50 [2]: 0.0335 µM | IC50 [3]: 0.0347 µM
Structure (SMILES): CN(C)C1CCN(c2ccc(Nc3ncc4c(n3)C3(C=CC(C)(C)CC3)c3cnccc3-4)cn2)CC1 (stereo not drawn) [Compound F, N-(6-(4-(dimethylamino)piperidin-1-yl)pyridin-3-yl)-4,4-dimethylspiro[cyclohex[2]ene-1,9′-pyrido[4′,3′:3,4]cyclopenta[1,2-d]pyrimidin]-2′-amine]
Titer ([1]; 1.2 microM, D 1): 0.49 g/L | VCD ([1]; 1.2 microM, D 1): 11.56 e6/mL | Viability ([1]; 1.2 microM, D 1): 96.84% | qP ([1]; 1.2 microM, D 1): 42.39 pg/c/d | Titer ([1]; 1.2 microM, D 2): 0.73 g/L | VCD ([1]; 1.2 microM, D 2): 10.80 e6/mL | Viability ([1]; 1.2 microM, D 2): 90.23% | qP ([1]; 1.2 microM, D 2): 67.31 pg/c/d | Titer ([1]; 1.2 microM, D 3): 0.96 g/L | VCD ([1]; 1.2 microM, D 3): 11.96 e6/mL | Viability ([1]; 1.2 microM, D 3): 89.40% | qP ([1]; 1.2 microM, D 3): 80.01 pg/c/d | Titer ([1]; 1.2 microM, D 4): 1.13 g/L | VCD ([1]; 1.2 microM, D 4): 14.70 e6/mL | Viability ([1]; 1.2 microM, D 4): 88.76% | qP ([1]; 1.2 microM, D 4): 77.09 pg/c/d | Titer ([1]; 2.4 microM, D 1): 0.50 g/L | VCD ([1]; 2.4 microM, D 1): 11.16 e6/mL | Viability ([1]; 2.4 microM, D 1): 95.96% | qP ([1]; 2.4 microM, D 1): 44.50 pg/c/d | Titer ([1]; 2.4 microM, D 2): 0.75 g/L | VCD ([1]; 2.4 microM, D 2): 10.01 e6/mL | Viability ([1]; 2.4 microM, D 2): 89.97% | qP ([1]; 2.4 microM, D 2): 75.27 pg/c/d | Titer ([1]; 2.4 microM, D 3): 0.97 g/L | VCD ([1]; 2.4 microM, D 3): 10.33 e6/mL | Viability ([1]; 2.4 microM, D 3): 88.89% | qP ([1]; 2.4 microM, D 3): 93.88 pg/c/d | Titer ([1]; 2.4 microM, D 4): 1.18 g/L | VCD ([1]; 2.4 microM, D 4): 12.84 e6/mL | Viability ([1]; 2.4 microM, D 4): 86.16% | qP ([1]; 2.4 microM, D 4): 91.87 pg/c/d | effect on viability [1]: minimal effects on viability | growth arrest [1]: reasonably sustained growth arrest
